Reference: the supplement of paper PMC8967900

Tests used:
Assay in all cases: selective drug sensitivity score (sDSS, relative to normal bone marrow) (sDSS (score)); higher = more potent and effective on the cell line relative to normal bone marrow cells
Details in all cases: 72 h
380 = system: 380
ALL-PO = system: ALL-PO
MHH-CALL-4 = system: MHH-CALL-4
COG-LL-402h = system: COG-LL-402h
TANOUE = system: TANOUE
MHH-CALL-2 = system: MHH-CALL-2
JURKAT = system: JURKAT
PEER = system: PEER
697 = system: 697
COG-LL-317 = system: COG-LL-317
MN-60 = system: MN-60
TMD5 = system: TMD5
COG-LL-394h = system: COG-LL-394h
KOPN-8 = system: KOPN-8
MOLT-4 = system: MOLT-4
MOLT-14 = system: MOLT-14
MOLT-16 = system: MOLT-16
COG-LL-319h = system: COG-LL-319h
P12-ICHIKAWA = system: P12-ICHIKAWA
CCRF-HSB2 = system: CCRF-HSB2
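Note: ALL cell lines in 384-well plates, five doses spanning 10,000-fold, each plate scaled between vehicle and 100 µmol/L benzalkonium chloride controls, sDSS an adapted area-under-curve metric.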

Compound | selective drug sensitivity score 380 | selective drug sensitivity score (ALL-PO) | selective drug sensitivity score (MHH-CALL-4) | selective drug sensitivity score (COG-LL-402h) | selective drug sensitivity score (TANOUE) | selective drug sensitivity score (MHH-CALL-2) | selective drug sensitivity score (JURKAT) | selective drug sensitivity score (PEER) | selective drug sensitivity score 697 | selective drug sensitivity score (COG-LL-317) | selective drug sensitivity score (MN-60) | selective drug sensitivity score (TMD5) | selective drug sensitivity score (COG-LL-394h) | selective drug sensitivity score (KOPN-8) | selective drug sensitivity score (MOLT-4) | selective drug sensitivity score (MOLT-14) | selective drug sensitivity score (MOLT-16) | selective drug sensitivity score (COG-LL-319h) | selective drug sensitivity score (P12-ICHIKAWA) | selective drug sensitivity score (CCRF-HSB2)
O=c1ncn2nc(Sc3ccc(F)cc3F)ccc2c1-c1c(Cl)cccc1Cl [Neflamapimod] (top concentration 10000 nM) | 4.7 | 5 | 0 | 0.1 | 1.4 | 1.8 | 1.7 | 2.3 | 2.9 | 1.7 | 1 | 0 | 1.3 | 4 | 0 | 0 | 2.1 | 0 | 1 | 0.5
CC(C)N(CCCNC(=O)Nc1ccc(C(C)(C)C)cc1)C[C@H]1O[C@@H](n2cc(Br)c3c(N)ncnc32)[C@H](O)[C@@H]1O [SGC0946] (top concentration 10000 nM) | -1.12 | 1.58 | -1.12 | -0.62 | -1.12 | 2.18 | -0.42 | 0.88 | -0.02 | -1.12 | -0.72 | 3.98 | -0.82 | -0.72 | 0.08 | -0.02 | 0.78 | -1.12 | 0.08 | 0.68
CCCCCCCCc1ccc(CCC(N)(CO)CO)cc1 [Fingolimod] (top concentration 10000 nM) | -1.12 | 2.28 | 1.58 | -0.92 | 0.78 | 8.88 | -1.12 | 1.78 | -0.22 | 1.08 | 1.28 | 0.48 | 1.68 | 3.18 | 1.78 | 2.08 | 5.38 | 0.28 | -0.92 | 0.48
C=CC(=O)Nc1cccc(Oc2nc(Nc3ccc(N4CCN(C)CC4)cc3)nc3ccsc23)c1 [Olmutinib] (top concentration 1000 nM) | -0.02 | -0.02 | -0.02 | 1.28 | -0.02 | 6.88 | -0.02 | -0.02 | -0.02 | 0.48 | -0.02 | -0.02 | -0.02 | -0.02 | -0.02 | -0.02 | -0.02 | -0.02 | -0.02 | -0.02
CCCCCCCCCCCCCCCCCCOP(=O)([O-])OC1CC[N+](C)(C)CC1 [Perifosine] (top concentration 2500 nM) | -0.16 | 0.94 | -0.16 | 4.04 | -0.36 | -0.26 | -0.36 | -0.36 | -0.36 | -0.36 | -0.36 | -0.36 | -0.36 | -0.26 | -0.36 | -0.36 | -0.36 | -0.26 | -0.36 | -0.36
Cc1nc2cccc(N)c2c(=O)n1C1CCC(=O)NC1=O (stereo not given) [Avadomide (CC122)] (top concentration 10000 nM) | 0 | 0 | 3.9 | 0.2 | 0 | 0 | 0 | 0 | 2.7 | 0 | 2.3 | 3.5 | 0 | 1.3 | 0 | 0 | 0 | 0 | 0 | 0
C=CC(=O)Nc1cc(Nc2nccc(-c3cn(C)c4ccccc34)n2)c(OC)cc1N(C)CCN(C)C [Osimertinib] (top concentration 2500 nM) | -3.82 | -0.72 | -1.12 | 0.78 | -5.22 | 3.18 | -4.22 | 1.28 | -1.42 | 0.78 | -3.02 | 2.98 | 1.68 | -0.82 | -3.12 | 0.08 | -0.82 | -4.12 | -3.02 | 0.08
O=C(NCc1ccncc1)C12CC3CC(C1)CC(c1ccc(Cl)cc1)(C3)C2 (top concentration 50000 nM) | 0.38 | 3.28 | 2.78 | 0.08 | -0.72 | 4.38 | 3.18 | 2.88 | 3.78 | -0.12 | -0.02 | 0.68 | 2.88 | 4.48 | 1.98 | 1.38 | 1.58 | -0.62 | 3.68 | 2.68
O=C(O)CCCCC(CCSCc1ccccc1)SCc1ccccc1 (stereo not given) [Devimistat (CPI-613)] (top concentration 10000 nM) | 1.9 | 0 | 0 | 0 | 1.8 | 0.8 | 0 | 0.1 | 0 | 0 | 0.1 | 0 | 0 | 0 | 0 | 0 | 0 | 1.3 | 0 | 0.3
